Patent US8536354B2, “Steroidal ligands and their use in gene switch modulation” (Intrexon Corporation, priority 2008, dated 2013)
Where two headings read alike, the source gives them in different places.

Experiments:
[1] = system: D. melanogaster BII cell line (expresses the ecdysteroid receptor complex EcR-USP); test: Drosophila melanogaster BII cell line bioassay (turbidometric; agonist and antagonist versions); details: read-out: EC50 (M), BII bioassay results
[2] = molecular target: wild-type Aedes aegypti EcR (AaEcR; GAL4-EcR DEF with VP16-RXR-USP chimera) (Aedes aegypti, UniProt P49880); test: Two-hybrid gene switch assay, luciferase reporter, wild-type AaEcR, mouse NIH3T3 cells; format: cell-based; details: read-out: EC50
Chain of wild-type Aedes aegypti EcR (AaEcR; GAL4-EcR DEF with VP16-RXR-USP chimera) (P49880 with tags, fused parts or gaps limits assumed, change not shown): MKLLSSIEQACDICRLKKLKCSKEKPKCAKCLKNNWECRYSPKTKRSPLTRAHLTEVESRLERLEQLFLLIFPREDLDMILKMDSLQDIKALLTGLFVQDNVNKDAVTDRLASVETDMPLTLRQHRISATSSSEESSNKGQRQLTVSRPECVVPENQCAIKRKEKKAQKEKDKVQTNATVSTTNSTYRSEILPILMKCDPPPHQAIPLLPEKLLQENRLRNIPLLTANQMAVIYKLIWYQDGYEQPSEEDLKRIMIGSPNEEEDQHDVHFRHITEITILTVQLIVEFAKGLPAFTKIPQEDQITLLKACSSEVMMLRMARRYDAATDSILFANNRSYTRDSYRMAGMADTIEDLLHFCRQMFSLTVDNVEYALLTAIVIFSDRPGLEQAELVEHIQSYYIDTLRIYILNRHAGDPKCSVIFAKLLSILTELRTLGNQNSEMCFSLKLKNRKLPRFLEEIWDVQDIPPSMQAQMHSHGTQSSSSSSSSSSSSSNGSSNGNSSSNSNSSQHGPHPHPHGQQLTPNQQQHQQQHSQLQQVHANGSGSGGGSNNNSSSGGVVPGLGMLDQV

[3] = molecular target: T1, BaEcR (GAL4-EcR DEF with VP16-RXR-USP chimera) (Bemisia tabaci, UniProt A0A6M3RDR8); test: Two-hybrid gene switch assay, luciferase reporter, BaEcR, mouse NIH3T3 cells
T1 sequence (A0A6M3RDR8 115-530): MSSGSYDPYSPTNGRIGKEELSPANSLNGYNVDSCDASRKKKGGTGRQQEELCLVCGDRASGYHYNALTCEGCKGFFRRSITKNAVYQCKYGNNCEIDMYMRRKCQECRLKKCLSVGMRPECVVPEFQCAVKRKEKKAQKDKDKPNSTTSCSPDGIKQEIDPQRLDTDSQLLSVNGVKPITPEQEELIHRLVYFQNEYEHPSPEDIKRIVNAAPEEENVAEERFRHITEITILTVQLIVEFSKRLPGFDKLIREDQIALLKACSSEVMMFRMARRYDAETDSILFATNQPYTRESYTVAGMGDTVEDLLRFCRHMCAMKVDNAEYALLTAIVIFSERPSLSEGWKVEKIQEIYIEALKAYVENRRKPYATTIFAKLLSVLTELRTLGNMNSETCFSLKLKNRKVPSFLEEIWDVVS
T1 sequence (P28702 1-533 partner): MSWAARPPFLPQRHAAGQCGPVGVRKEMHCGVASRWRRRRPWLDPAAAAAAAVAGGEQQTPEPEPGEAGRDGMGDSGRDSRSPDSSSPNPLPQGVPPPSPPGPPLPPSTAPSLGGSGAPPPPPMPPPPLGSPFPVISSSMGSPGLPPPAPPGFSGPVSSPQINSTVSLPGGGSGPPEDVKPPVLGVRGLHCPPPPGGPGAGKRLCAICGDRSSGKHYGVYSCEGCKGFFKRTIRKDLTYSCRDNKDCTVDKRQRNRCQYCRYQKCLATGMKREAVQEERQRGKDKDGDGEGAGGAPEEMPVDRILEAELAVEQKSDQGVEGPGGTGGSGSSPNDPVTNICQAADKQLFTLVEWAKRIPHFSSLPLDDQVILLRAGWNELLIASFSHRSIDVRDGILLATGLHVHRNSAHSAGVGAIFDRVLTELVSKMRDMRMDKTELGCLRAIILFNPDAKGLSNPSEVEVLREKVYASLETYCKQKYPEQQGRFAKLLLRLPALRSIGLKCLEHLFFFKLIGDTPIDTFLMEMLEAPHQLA

[4] = molecular target: T2, TmEcR (GAL4-EcR DEF with VP16-RXR partner) (Tenebrio molitor, UniProt O02035); test: Two-hybrid gene switch assay, luciferase reporter, TmEcR, mouse NIH3T3 cells
T2 sequence (O02035 194-491): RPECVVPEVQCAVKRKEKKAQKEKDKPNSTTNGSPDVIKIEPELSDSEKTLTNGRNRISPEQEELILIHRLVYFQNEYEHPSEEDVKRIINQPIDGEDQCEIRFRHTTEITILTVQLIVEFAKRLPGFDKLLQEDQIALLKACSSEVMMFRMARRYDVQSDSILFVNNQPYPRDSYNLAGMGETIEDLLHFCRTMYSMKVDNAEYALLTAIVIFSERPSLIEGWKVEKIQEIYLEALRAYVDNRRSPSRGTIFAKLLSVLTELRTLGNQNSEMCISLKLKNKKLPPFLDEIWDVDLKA
T2 sequence (P28704 1-520 partner): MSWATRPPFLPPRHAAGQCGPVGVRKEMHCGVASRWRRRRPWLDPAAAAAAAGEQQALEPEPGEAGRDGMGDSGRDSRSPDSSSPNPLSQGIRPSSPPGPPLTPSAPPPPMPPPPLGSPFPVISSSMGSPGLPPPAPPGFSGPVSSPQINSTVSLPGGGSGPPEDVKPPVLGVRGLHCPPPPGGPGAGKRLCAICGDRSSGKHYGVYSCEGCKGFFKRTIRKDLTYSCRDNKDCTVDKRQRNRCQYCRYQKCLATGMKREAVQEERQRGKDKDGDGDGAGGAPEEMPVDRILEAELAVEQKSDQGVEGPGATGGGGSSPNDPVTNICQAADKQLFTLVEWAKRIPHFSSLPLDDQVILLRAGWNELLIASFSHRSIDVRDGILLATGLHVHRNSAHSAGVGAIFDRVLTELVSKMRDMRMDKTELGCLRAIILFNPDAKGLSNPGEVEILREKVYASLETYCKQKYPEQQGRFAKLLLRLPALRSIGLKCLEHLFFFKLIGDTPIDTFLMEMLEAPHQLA

[5] = molecular target: T3, MsEcR (GAL4-EcR DEF with VP16-RXR-USP chimera) (Manduca sexta, UniProt P49883); test: Two-hybrid gene switch assay, luciferase reporter, MsEcR, mouse NIH3T3 cells
T3 sequence (P49883 1-556): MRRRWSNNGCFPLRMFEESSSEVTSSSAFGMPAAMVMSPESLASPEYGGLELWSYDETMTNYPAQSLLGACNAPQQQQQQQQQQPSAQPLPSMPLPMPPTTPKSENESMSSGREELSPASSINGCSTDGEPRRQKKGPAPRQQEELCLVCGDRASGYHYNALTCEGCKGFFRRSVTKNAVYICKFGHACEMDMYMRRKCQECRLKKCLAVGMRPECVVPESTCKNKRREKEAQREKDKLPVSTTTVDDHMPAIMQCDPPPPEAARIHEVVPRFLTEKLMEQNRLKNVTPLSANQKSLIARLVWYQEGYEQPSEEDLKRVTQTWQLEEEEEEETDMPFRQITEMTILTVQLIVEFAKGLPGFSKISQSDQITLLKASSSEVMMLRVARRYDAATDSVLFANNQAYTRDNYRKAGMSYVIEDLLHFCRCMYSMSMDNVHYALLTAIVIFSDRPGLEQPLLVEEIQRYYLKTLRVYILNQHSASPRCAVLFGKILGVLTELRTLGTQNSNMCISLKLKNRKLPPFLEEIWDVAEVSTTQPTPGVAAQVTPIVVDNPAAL
T3 sequence (P28702 1-533 partner): T1 sequence (P28702 1-533 partner)

[6] = molecular target: T4, AmaEcR (GAL4-EcR DEF with VP16-RXR-USP chimera) (Amblyomma americanum, UniProt O44338); test: Two-hybrid gene switch assay, luciferase reporter, AmaEcR, mouse NIH3T3 cells
T4 sequence (O44338 255-570): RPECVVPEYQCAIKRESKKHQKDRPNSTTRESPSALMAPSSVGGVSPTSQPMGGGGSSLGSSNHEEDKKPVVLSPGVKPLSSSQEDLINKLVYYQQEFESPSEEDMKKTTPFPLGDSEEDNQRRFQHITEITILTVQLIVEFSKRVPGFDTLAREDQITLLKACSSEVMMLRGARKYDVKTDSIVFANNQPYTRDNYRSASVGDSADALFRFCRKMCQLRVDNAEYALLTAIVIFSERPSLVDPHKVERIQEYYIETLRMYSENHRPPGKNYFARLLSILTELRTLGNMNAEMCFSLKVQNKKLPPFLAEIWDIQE
T4 sequence (P28702 1-533 partner): T1 sequence (P28702 1-533 partner)

[7] = molecular target: wild-type Drosophila melanogaster EcR (DmEcR; GAL4-EcR DEF with VP16-RXR-USP chimera) (Drosophila melanogaster, UniProt P34021); test: Two-hybrid gene switch assay, luciferase reporter, wild-type DmEcR, mouse NIH3T3 cells; format: cell-based
Chain of wild-type Drosophila melanogaster EcR (DmEcR; GAL4-EcR DEF with VP16-RXR-USP chimera) (P34021 with tags, fused parts or gaps limits assumed): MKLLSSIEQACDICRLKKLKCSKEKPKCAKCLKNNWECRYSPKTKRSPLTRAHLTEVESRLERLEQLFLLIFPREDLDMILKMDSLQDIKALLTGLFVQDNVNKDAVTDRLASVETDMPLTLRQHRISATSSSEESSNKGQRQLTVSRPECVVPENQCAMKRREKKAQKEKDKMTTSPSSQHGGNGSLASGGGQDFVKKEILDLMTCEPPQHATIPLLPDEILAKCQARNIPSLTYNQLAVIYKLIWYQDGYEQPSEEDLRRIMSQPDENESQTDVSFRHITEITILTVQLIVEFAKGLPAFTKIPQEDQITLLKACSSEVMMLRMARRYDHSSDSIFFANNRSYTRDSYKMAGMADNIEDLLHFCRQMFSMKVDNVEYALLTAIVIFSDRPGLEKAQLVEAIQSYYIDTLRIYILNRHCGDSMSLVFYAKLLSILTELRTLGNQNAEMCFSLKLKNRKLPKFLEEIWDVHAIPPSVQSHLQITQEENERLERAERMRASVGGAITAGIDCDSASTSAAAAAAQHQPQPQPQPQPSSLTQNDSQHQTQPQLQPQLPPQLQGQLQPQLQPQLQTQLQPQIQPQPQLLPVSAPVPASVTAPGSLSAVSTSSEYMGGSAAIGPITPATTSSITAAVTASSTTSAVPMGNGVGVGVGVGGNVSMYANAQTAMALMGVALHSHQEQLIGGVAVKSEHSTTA

[8] = system: NcEcR (GAL4-EcR DEF with VP16-RXR partner); test: Two-hybrid gene switch assay, luciferase reporter, NcEcR, mouse NIH3T3 cells
[9] = molecular target: BmEcR (GAL4-EcR DEF with VP16-RXR-USP chimera) (Bombyx mori, UniProt P49881); test: Two-hybrid gene switch assay, luciferase reporter, BmEcR, mouse NIH3T3 cells; format: cell-based
Chain of BmEcR (GAL4-EcR DEF with VP16-RXR-USP chimera) (P49881 other isoform, or with tags, fused parts or gaps, change not shown): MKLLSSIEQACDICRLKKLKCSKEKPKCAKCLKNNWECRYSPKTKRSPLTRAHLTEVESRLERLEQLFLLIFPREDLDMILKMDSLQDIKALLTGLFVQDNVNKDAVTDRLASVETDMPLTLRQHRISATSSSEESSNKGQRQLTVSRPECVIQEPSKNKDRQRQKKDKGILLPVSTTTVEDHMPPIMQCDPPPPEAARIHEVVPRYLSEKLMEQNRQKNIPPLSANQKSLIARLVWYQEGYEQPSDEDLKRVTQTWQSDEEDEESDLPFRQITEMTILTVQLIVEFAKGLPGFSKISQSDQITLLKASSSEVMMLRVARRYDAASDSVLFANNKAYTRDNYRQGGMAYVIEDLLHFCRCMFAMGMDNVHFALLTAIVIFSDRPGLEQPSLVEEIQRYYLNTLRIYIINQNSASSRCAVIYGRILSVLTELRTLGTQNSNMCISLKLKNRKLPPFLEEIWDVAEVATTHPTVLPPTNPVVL

[10] = molecular target: T5, wild-type CfEcR (GAL4-CfEcR-DEF with VP16-RXR-USP chimera) (Choristoneura fumiferana, UniProt O77255); test: Two-hybrid gene switch assay, luciferase reporter, wild-type CfEcR, mouse NIH3T3 cells
T5 sequence (O77255 219-541): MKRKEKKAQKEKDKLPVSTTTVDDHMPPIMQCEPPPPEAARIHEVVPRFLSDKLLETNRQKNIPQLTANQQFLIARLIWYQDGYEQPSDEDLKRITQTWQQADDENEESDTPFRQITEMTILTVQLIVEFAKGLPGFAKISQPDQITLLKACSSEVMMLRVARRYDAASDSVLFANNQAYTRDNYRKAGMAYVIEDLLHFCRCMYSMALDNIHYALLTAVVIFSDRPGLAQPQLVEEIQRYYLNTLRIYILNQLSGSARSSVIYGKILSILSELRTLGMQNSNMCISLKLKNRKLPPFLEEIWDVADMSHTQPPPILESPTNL
T5 sequence (P28702 1-533 partner): T1 sequence (P28702 1-533 partner)

[11] = FIG. 14A/14B, GAL4-EcR(DEF) with VP16-RXR-USP chimera
[12] = EC50, FIG. 14A/14B, GAL4-EcR(DEF) with VP16-RXR-USP chimera
[13] = EC50, FIG. 16, GAL4-EcR (DEF) / VP16-RXR-USP chimera
[14] = EC50, FIG. 14A/14B, GAL4-EcR(DEF)
[15] = EC50, FIG. 13A/13B, GAL4-EcR(DEF) with VP16-RXR-USP chimera
[16] = D. melanogaster BII cell line, turbidometric
[17] = FIG. 14A/14B, GAL4-EcR(DEF) with VP16-RXR-USP chimera, read-out: EC50
[18] = FIG. 13A/13B, BmEcR, GAL4-EcR(DEF) with VP16-RXR-USP chimera, read-out: EC50

Row | Compound | EC50 [2, 11] [µM] | EC50 [3, 12] [µM] | EC50 [4, 14] [µM] | EC50 [5, 15] [µM] | EC50 [6, 12] [µM] | EC50 [1, 16] [M] | EC50 ([8]; FIG. 14A/14B, GAL4-EcR(DEF)) [µM] | also measured
1 | CO[C@H]1CC2(C)C(C[C@H]1OC)C(=O)C=C1C2CCC2(C)C([C@@](C)(O)[C@@H](CCC(C)(C)O)OC)CC[C@@]12OC (stereo partly shown) [compound 15, 20-hydroxyecdysone, 2,3,14,22-tetramethyl ether] | – | – | – | – | – | – | – | EC50 ([1]; Drosophila melanogaster): 9e-05 M
2 | CC(=O)C1CCC2(O)C3=CC(=O)C4CC(O)C(O)CC4(C)C3CCC12C (stereo not shown) [poststerone] | > 33 | > 33 | > 33 | > 33 | > 33 | – | – | EC50 ([2]; FIG. 16, GAL4-EcR (DEF) / VP16-RXR-USP chimera): 10.5 µM; EC50 [3, 13]: > 33 µM; EC50 ([4]; EC50, FIG. 16, GAL4-EcR (DEF)): > 33 µM; EC50 ([5]; EC50, FIG. 15, GAL4-EcR (DEF) / VP16-RXR-USP chimera): > 33 µM; EC50 [6, 13]: ~10 µM; EC50 [7, 12]: > 33 µM; EC50 [7, 13]: > 33 µM; EC50 ([8]; FIG. 16, GAL4-EcR (DEF)): ~10 µM; EC50 ([9]; read-out: EC50): > 33 µM
3 | CO[C@H]1C[C@@]2(C)[C@@H](C[C@H]1O)C(=O)C=C1[C@@H]2CC[C@]2(C)[C@@H]([C@@](C)(O)[C@H](O)CCC(C)C)CC[C@@]12O [compound 16, ponasterone A, 2-methyl ether] | – | – | – | – | – | 4.3e-08 | – | –
4 | CCCO[C@H](CCC(C)(C)O)[C@](C)(O)C1CC[C@@]2(O)C3=CC(=O)C4C[C@@H](O)[C@@H](O)CC4(C)C3CCC12C (stereo partly shown) [compound 6, 20-hydroxyecdysone, 22-n-propyl ether] | – | – | – | – | – | – | – | EC50 ([1]; Drosophila melanogaster): 8.3e-07 M
5 | CO[C@H](CCC(C)(C)OC)[C@](C)(O)[C@H]1CC[C@@]2(O)C3=CC(=O)[C@@H]4C[C@@H](O)[C@@H](O)C[C@]4(C)[C@H]3CC[C@]12C [compound 14, 20-hydroxyecdysone, 22,25-dimethyl ether] | – | – | – | – | – | 1.2e-07 | – | –
6 | COC(CCC(C)C)[C@](C)(O)[C@H]1CC[C@@]2(O)C3=CC(=O)[C@@H]4C[C@@H](OC)[C@@H](O)C[C@]4(C)[C@H]3CC[C@]12C (stereo partly shown) [compound 20, ponasterone A, 3,22-dimethyl ether] | – | – | – | – | – | 1.2e-08 | – | –
7 | CC(C)(O)CCCC(C)(O)C1CCC2(O)C3=CC(=O)C4CC(O)C(O)CC4(C)C3CCC12C (stereo not shown) | – | ~10 | ~20 | ~15 | ~10 | – | 3.04 | EC50 [10]: > 33 µM; EC50 [7, 12]: ~20 µM; EC50 [9]: > 33 µM
8 | CC(C)(O)CC[C@@H](O)[C@](C)(O)[C@H]1CC[C@@]2(O)C3=CC(=O)[C@H]4C[C@@H](O)[C@@H](O)C[C@]4(C)[C@H]3CC[C@]12C [(5a-H)-20-hydroxyecdysone] | ~20 | > 33 | > 33 | > 33 | > 33 | – | ~15 | EC50 [7, 17]: > 33 µM; EC50 [9, 18]: > 33 µM
9 | CC(C)(O)CC[C@@H](O)[C@](C)(O)[C@H]1CC[C@@]2(O)C3=CC(=O)[C@@H]4C[C@H](O)[C@@H](O)C[C@]4(C)[C@H]3CC[C@]12C | ~8 | ~20 | > 33 | ~10 | ~10 | – | 4.84 | EC50 [7, 17]: ~20 µM; EC50 [9, 18]: > 33 µM
